Results on two compounds are retold here after US20090263317A1, “METHOD OF SCREENING THE ACTIVITY OF THE SMOOTHENED RECEPTOR TO IDENTIFY THERAPUTIC MODULATION AGENTS OR DIAGNOSE DISEASE” (priority 2005, published 2009).

In this assay the target is T1, Smo (Homo sapiens, UniProt Q99835).
T1 construct: expressed in transfected cells; host or cells: HEK293
Nature of the assay: Membrane recruitment (translocation) of βarr2-GFP, confocal imaging. The class given is cell-based.

Structures are written as SMILES.

T1 sequence (Q99835 28-787): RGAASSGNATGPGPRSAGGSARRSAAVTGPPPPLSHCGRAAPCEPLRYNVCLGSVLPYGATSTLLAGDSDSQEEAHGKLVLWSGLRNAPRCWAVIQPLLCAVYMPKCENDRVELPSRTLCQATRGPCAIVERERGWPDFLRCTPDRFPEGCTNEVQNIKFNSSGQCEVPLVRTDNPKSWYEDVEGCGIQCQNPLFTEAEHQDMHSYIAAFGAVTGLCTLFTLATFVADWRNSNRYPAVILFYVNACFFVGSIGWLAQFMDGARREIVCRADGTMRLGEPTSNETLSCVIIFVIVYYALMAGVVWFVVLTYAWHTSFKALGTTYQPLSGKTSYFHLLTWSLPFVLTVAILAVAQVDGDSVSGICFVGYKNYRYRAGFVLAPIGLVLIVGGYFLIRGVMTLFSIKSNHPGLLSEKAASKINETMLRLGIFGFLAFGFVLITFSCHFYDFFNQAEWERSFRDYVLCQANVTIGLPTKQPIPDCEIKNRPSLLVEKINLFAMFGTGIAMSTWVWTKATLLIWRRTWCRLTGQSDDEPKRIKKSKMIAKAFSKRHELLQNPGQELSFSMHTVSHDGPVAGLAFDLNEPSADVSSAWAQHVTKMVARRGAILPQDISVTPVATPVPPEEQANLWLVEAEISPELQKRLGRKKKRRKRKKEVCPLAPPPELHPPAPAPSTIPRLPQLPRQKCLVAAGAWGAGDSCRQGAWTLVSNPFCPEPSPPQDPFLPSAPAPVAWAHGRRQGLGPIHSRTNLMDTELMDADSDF
Source text: Localization of beta-arrestin2 green fluorescent protein (βarr2-GFP) to the plasma membrane in cells overexpressing Smo seen in FIG. 1: Confocal images of βarr2-GFP expressed alone (A) or with Myc-Smo (B) in Human embryonic kidney (HEK)293 cells. (C) Effects of Ptc, ShhN, and G protein coupled receptor kinase (GRK2) on recruitment of βarr2-GFP to the plasma membrane. βarr2-GFP was expressed with Myc-Smo (bar 1), Myc-Smo and FLAG-Ptc (bar 2), Myc-Smo and FLAG-Ptc (co-cultured with HEK293 expressing Sonic hedgehog (Shh)N-terminus, an active form of Shh (bar 3), or Myc-Smo and GRK2 (bar 4) in HEK293 cells. Data are presented as the percentage of βarr2-GFP-13 expressing cells with recruitment of βarr2-GFP and are the means±SEM of three independent experiments. *P<0.05 (compared with bar 1) and **P<0.005 (compared with bar 2) (unpaired t test).
Confocal images of βarr2-GFP expressed with FLAG-Ptc (A), FLAG-Ptc and Myc-Smo (B), and Myc-Smo (C and D) in HEK293 cells. Cells were left untreated (A to C) or treated with 8 μM cyclopamine (D) at 37° C. for 5 min. […] (F and G) Confocal images of cells stimulated with 0.3 μM SAG at 37° C. for 0 min (F) and 30 min (G). HEK293 cells were transfected with βarr2-GFP, FLAG-Ptc, Myc-Smo, and GRK2.

Consider `CNC1CCC(N(Cc2cccc(-c3ccncc3)c2)C(=O)c2sc3ccccc3c2Cl)CC1` (centres unmarked) [SAG], for which the “Recruitment of βarr2-GFP to the plasma membrane under Ptc inhibition” value (HEK293 cells transfected with βarr2-GFP, FLAG-Ptc, Myc-Smo and GRK2, 0.3 μM SAG at 37° C., 30 min versus 0 min) is given as “relieves Ptc inhibition of recruitment of βarr2-GFP to the plasma membrane”.

For `CC1=C2C[C@H]3[C@@H](CC=C4C[C@@H](O)CC[C@@]43C)[C@@H]2CC[C@]12O[C@@H]1C[C@H](C)CN[C@H]1[C@H]2C` [cyclopamine], the “Recruitment of βarr2-GFP to Smo” value (HEK293 cells expressing βarr2-GFP and Myc-Smo, 8 μM cyclopamine at 37° C. for 5 min, versus untreated) is “ablated”.
